Data reported in patent US10906938B2, “Cell epitopes and combination of cell epitopes for use in the immunotherapy of myeloma and other cancers” (Immatics Biotechnologies GmbH, priority 2015, dated 2021).

Assays:
Type in all cases: cell-based, human
[1] = system: PBMC obtained from MM patients; assay: 12-day recall IFNγ ELISPOT with PBMC of MM patients; settings: for specific T-cell recognition, MM patients positive/tested / specific T-cell recognition, share of MM patients: 12-day recall IFNγ ELISPOT, PBMC of MM patients, HLA class I peptide
Method: PBMC from MM patients and HVs were cultured as described previously. In brief, for CD8^+ T-cell stimulation, PBMC were pulsed with 1 μg/ml per peptide and cultured for 12 days adding IL-4 and IL-7 on day 0 and 1 as well as IL-2 on day 3, 5, 7 and 9. HLA-A*02 (KLFEKVKEV) (SEQ ID NO. 231) and B*07 (KPSEKIQVL) (SEQ ID NO. 232) restricted control peptides derived from benign tissues (HV-exclusive HLA ligands) served as negative control. Peptide-stimulated PBMC were analyzed by ELISPOT assays on day 12. For CD4^+ T-cell stimulation, culture was performed as described for CD8^+ T cells except for 2 modifications: pulsing was carried out with 10 μg/ml of HLA class II peptide and no IL-4 or IL-7 was added.
IFNγ ELISPOT assays were carried out as described previously. In brief, 96-well nitrocellulose plates (Millipore) were coated with […] IFNγ mAb (Mabtech) and incubated over night at 4° C. Plates were blocked with 10% human serum for 2 h at 37° C. 2.5×10^5 cells/well of pre-stimulated PBMC were pulsed with 1 μg/ml (HLA class I) or 2.5 μg/ml (HLA class II) peptide and incubated for 24-26 h. Readout was performed according to manufacturer's instructions. PHA was used as positive control. HLA-A*02 (KLFEKVKEV) (SEQ ID NO. 231) and B*07 (KPSEKIQVL) (SEQ ID NO. 232) restricted control peptides derived from benign tissues (HV-exclusive HLA ligands) served as negative control. Spots were counted using an ImmunoSpot S5 analyzer (CTL). T cell responses were considered to be positive when >10 spots/well were counted and the mean spot count per well was at least 3-fold higher than the mean number of spots in the negative control wells (according to the cancer immunoguiding program (CIP) guidelines).

[2] = system: CD8+ T cells from one healthy individual; assay: aAPC priming and tetramer staining, CD8+ T cells of a healthy individual
Method: (§1) For the generation of artificial antigen presenting cells (aAPC), 4×10^6 streptavidincoated polystyrene particles (Bangs Laboratories) per ml were resuspended in PBE (PBS/BSA/ETDA, Gibco/Sigma Aldrich/Lonza) containing 200 pM biotinylated MHCpeptide monomer and 20 nM anti-human biotinylated CD28 antibody and incubated at room temperature for 30 min. After washing, the aAPCs were stored at 4° C. prior to use. CD8^+ T cells from MM patients and HV were enriched by positive selection using magnetic cell sorting (Miltenyi Biotec). Stimulations were initiated in 96-well plates with 1×10^6 T cells plus 2×10^5 aAPCs in 200 μl T-cell medium complemented with 5 ng/ml human IL-12 (PromoKine). […] IL-2 (R&D Systems) were added on day 5. aAPC stimulation was repeated on day 10, for a total of 3 cycles.
(§2) The frequency of peptide-specific CD8^+ T cells was determined on a FACS Canto II cytometer (BD Bioscience) by staining with anti-CD8 (Biolegend) and HLA:peptidetetramer-PE as described previously. Staining with tetramers containing the CMV pp65 A*02 peptide NLVPMVATV (SEQ ID No. 236) served as positive control, tetramers containing irrelevant, non-primed A*02 restricted control peptides as negative controls. […]

[3] = system: CD8+ T cells from one MM patient; assay: aAPC priming and tetramer staining, CD8+ T cells of an MM patient; settings: T cells from an MM patient without previous T-cell reactivity for P2
Method: as §1, §2

MM.1S cells = assay: HLA class I ligand presentation upon carfilzomib treatment on MM.1S cells (LC-MS/MS); set-up: key to modulation upon carfilzomib-treatment 24 #1 / modulation upon carfilzomib-treatment 24 #2 / modulation upon carfilzomib-treatment 24 #3 / modulation upon carfilzomib-treatment 48 #1 / modulation upon carfilzomib-treatment 48 #2 / modulation upon carfilzomib-treatment 48 #3: −1: significantly down-modulated; 0: not signifcant/not detected; 1: significantly up-modulated; settings: MM.1S cells, vs mock-treated controls; for modulation upon carfilzomib-treatment 24 #1 / modulation upon carfilzomib-treatment 24 #2 / modulation upon carfilzomib-treatment 24 #3: 24 h after carfilzomib treatment (100 nM, 1 h); for modulation upon carfilzomib-treatment 24 #1 / modulation upon carfilzomib-treatment 48 #1: biological replicate #1; for modulation upon carfilzomib-treatment 24 #2 / modulation upon carfilzomib-treatment 48 #2: biological replicate #2; for modulation upon carfilzomib-treatment 24 #3 / modulation upon carfilzomib-treatment 48 #3: biological replicate #3; for modulation upon carfilzomib-treatment 48 #1 / modulation upon carfilzomib-treatment 48 #2 / modulation upon carfilzomib-treatment 48 #3: 48 h after carfilzomib treatment (100 nM, 1 h)
Method: HLA class I and II molecules were isolated using standard immunoaffinity purification as described using the pan-HLA class I specific mAb W6/32, the pan-HLA class II specific mAb T039 and the HLA-DR specific mAB L243 (produced in house).
HLA ligand extracts were analyzed in 5 technical replicates as described previously. In brief, peptide samples were separated by nanoflow HPLC (RSLCnano, ThermoFisher) using a 50 μm×25 cm PepMap RSLC column (Thermo Fisher) and a gradient ranging from 2.4 to 32.0% acetonitrile over the course of 90 min. Eluting peptides were analyzed in an online coupled LTQ Orbitrap XL mass spectrometer (Thermo Fisher) using a top 5 CID (collision induced dissociation) fragmentation method.
Data processing was performed as described previously. In brief, the Mascot search engine (Mascot 2.2.04; Matrix Science, London, UK) was implemented to search the human proteome as comprised in the Swiss-Prot database (20,279 reviewed protein sequences, September 2013) without enzymatic restriction. Potential mutated HLA ligands were searched implementing a database containing the human proteome concatenated with proteins containing single amino acid variants (SAVs) listed in the COSMIC database (http://cancer.sanger.ac.uk/cosmic/). Only recurrent SAVs described in 2 or more samples of hematological origin were included. Oxidized methionine was allowed as a dynamic modification. The false discovery rate was estimated using the Percolator algorithm and set to 5%. Peptide lengths were limited to 8-12 amino acids for HLA class I and 12-25 amino acids for HLA class II. Protein inference was disabled, allowing for multiple protein annotations of peptides. HLA annotation was performed using SYFPEITHI [46] or an extended in-house database. Experimental validation of peptide identifications and HLA annotations was performed by mass spectrometric and functional characterization of synthetic peptides for a subset of peptides.
The inventors quantitatively assessed HLA class I ligand presentation during proteasome inhibitor therapy. Observed was a considerable plasticity of the HLA class I ligandome after treatment with carfilzomib with 17.9±1.1% of MM.1S ligands and 11.2±0.7% of U266 ligands (mean of three biological replicates ±s.d.) showing significant modulation (fold-change ≥4, Po0.01 after Benjamini-Hochberg correction) at t24 h compared with mock-treated controls. Briefly, Cultured MCLs (MM.1S and U266) and primary myeloma samples were incubated with carfilzomib (100 nM, Kyprolis®, available, e.g., from Onyx Pharmaceuticals, Inc.) as an example for a proteasome inhibitor for a 1-h period, followed by three washes in PBS (Gibco) and recultured for additional 24 or 48 h. Controls were incubated with vehicle control (glucose 5%) for 1 h, followed by identical washing and incubation for 24 or 48 h. Experiments were conducted in three biological replicates where indicated.

U266 cells = assay: HLA class I ligand presentation upon carfilzomib treatment on U266 cells (LC-MS/MS); set-up: key to modulation upon carfilzomib-treatment 24 #1 / modulation upon carfilzomib-treatment 24 #2 / modulation upon carfilzomib-treatment 24 #3 / modulation upon carfilzomib-treatment 48 #1 / modulation upon carfilzomib-treatment 48 #2 / modulation upon carfilzomib-treatment 48 #3: −1: significantly down-modulated; 0: not signifcant/not detected; 1: significantly up-modulated; settings: U266 cells, vs mock-treated controls; for modulation upon carfilzomib-treatment 24 #1 / modulation upon carfilzomib-treatment 24 #2 / modulation upon carfilzomib-treatment 24 #3: 24 h after carfilzomib treatment (100 nM, 1 h); for modulation upon carfilzomib-treatment 24 #1 / modulation upon carfilzomib-treatment 48 #1: biological replicate #1; for modulation upon carfilzomib-treatment 24 #2 / modulation upon carfilzomib-treatment 48 #2: biological replicate #2; for modulation upon carfilzomib-treatment 24 #3 / modulation upon carfilzomib-treatment 48 #3: biological replicate #3; for modulation upon carfilzomib-treatment 48 #1 / modulation upon carfilzomib-treatment 48 #2 / modulation upon carfilzomib-treatment 48 #3: 48 h after carfilzomib treatment (100 nM, 1 h)
In short: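 MM.1S and U266 myeloma cells were pulsed with 100 nM carfilzomib for 1 h, washed and recultured 24 or 48 h; controls got 5% glucose vehicle. HLA class I ligands were immunopurified with W6/32 and analysed by nanoLC-MS/MS (CID, 5 technical replicates, 5% FDR, 8-12-mers). Modulation versus mock was scored as fold-change ≥4 with Benjamini-Hochberg-corrected significance.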

Sequence	specific T-cell recognition, MM patients positive/tested [1]	specific T-cell recognition, share of MM patients [1]	P2-tetramer positive CD8+ T cells after in vitro priming ([2]; HV-derived CD8+ T cells, 3 cycles of aAPC priming)	tetramer-positive T-cell populations ex vivo ([2]; ex vivo, without priming)	P2-tetramer positive CD8+ T cells after priming [3]	memory T-cell responses, MM patients positive/tested ([1]; IFNγ ELISPOT, HLA class II peptide, MM patients)	modulation upon carfilzomib-treatment 24 #1 (MM.1S cells)	modulation upon carfilzomib-treatment 24 #2 (MM.1S cells)	modulation upon carfilzomib-treatment 24 #3 (MM.1S cells)	modulation upon carfilzomib-treatment 48 #1 (MM.1S cells)	modulation upon carfilzomib-treatment 48 #2 (MM.1S cells)	modulation upon carfilzomib-treatment 48 #3 (MM.1S cells)	modulation upon carfilzomib-treatment 24 #1 (U266 cells)	modulation upon carfilzomib-treatment 24 #2 (U266 cells)	modulation upon carfilzomib-treatment 24 #3 (U266 cells)	modulation upon carfilzomib-treatment 48 #1 (U266 cells)	modulation upon carfilzomib-treatment 48 #2 (U266 cells)	modulation upon carfilzomib-treatment 48 #3 (U266 cells)
SLLEQGLVEA (listed as Homo sapiens) [SEQ ID NO: 177]	1/8	13%	0.403%	≤ 0.1%	0.236%	–	–	–	–	–	–	–	–	–	–	–	–	–
KAMEAASSL (listed as Homo sapiens) [SEQ ID NO: 82]	2/16	13%	–	–	–	–	–	–	–	–	–	–	–	–	–	–	–	–
NSVIIVDKNGRLV (listed as Homo sapiens) [SEQ ID NO: 237]	–	–	–	–	–	2/5	–	–	–	–	–	–	–	–	–	–	–	–
TPSSRPASL	–	–	–	–	–	–	1	1	0	0	0	0	0	0	0	0	0	0
TPAVGRLEV	–	–	–	–	–	–	0	0	0	0	0	0	0	0	0	0	0	0
